These results are taken from patent US12275685B2, “Oligo-benzamide analogs and their use in cancer treatment” (Board of Regents, The University of Texas System, priority 2018, dated 2025).

Each structure is given as a SMILES string. Like-named read-outs stand apart in the source and are kept apart here.

A short description of series [1]: Pharmacokinetic profile of TX-542. Format: in vivo. The method, then:
FIG. 58: PK properties of TX-542 indicate a half-life in plasma of 8 h and accumulation over time in tumor.
(§1) To establish the pharmacokinetic (PK) profile of TX-542, the inventors worked with the UTSW preclinical pharmacology core to characterize pharmacologic properties of TX-542 (FIG. 58). These studies indicated an 8-h half-life of TX-542 in the plasma, with drug detectable in both the liver and kidney after intraperitoneal (i.p.) administration.

For series [2], the system named is ER-null (SUM-159 or MDA-MB-231 cells). Briefly: Antiproliferative assay in ER-null cells. Format: cell-based. From the text: (§2) FIG. 52: Comparative efficacy of TX-542 and SERDs in BC cells expressing WT and/or MT ERα: Using CRISPR-Cas9, both copies of WT ERα genes were knocked out in ZR-75 and T47-D, while only one copy of WT Era was knocked out in MCF-7 cells. Following knockout of WT ERα clones with stable expression of either Y537S ERα MT or the D538G ERα MT were selected. […] ERα-negative TNBC cells (SUM-159 and MDA-MB-231) were used as controls. Dose response curves were generated for ERX-11, TX-542 and SERDs using cell titer glo assays. IC50 values for each cell line and drug were calculated and tabulated. Tam=tamoxifen, ICI=fulvestrant, GDC-0810=Genentech SERD, AZD-9496 Astra Zeneca SERD, RAD-1901=Radius SERD, Palbo=Palbociclib. IC50 values<50 nM are shown in red.
(§3) TX-542. TX-542 was potent (IC50˜20-50 nM) as an antiproliferative agent against expressing MT-ERα, both in genetically modified MCF-7 cells with one WT-ERα allele and one MT-ERα allele introduced by CRISPR and genetically modified ZR-75 or T47-D cells in which both copies of WT-ERα alleles were replaced using CRISPR with MT-ERα. TX-542 had no activity against ER-null (SUM-159 or MDA-MB-231 cells) or non-tumorigenic breast epithelial cells, such as human mammary epithelial cells (HMEC). […] In addition, these agents are not able to consistently target all the MT-ERα forms in distinct genetic contexts, as shown in FIG. 52 and as reported by others.

The subject of series [3] is MCF-7 MT-ERα Y537S and D538G cells. Format: cell-based. The note with it: comparators at 200 nM in MCF-7 MT-ERα Y537S cells.
Series [4] has as its system BC cells expressing WT-ERα and MT-ERα. Briefly: Clonogenic assay. The following applies: 100 nM. Format: cell-based. The method, then: FIG. 53: Effect of 100 nM TX-542 on clonogenic survival of WT-ERα and MT-ERα BC cell lines.
(§4) The 200 nM dose for these drugs reflects the level at which each of these drugs has a significant effect on spheroid formation in the MCF-7 WT-ERa cells. Taken together, these studies indicate that TX-542 has significant activity against both WT-ERα and MT-ERα driven ERα+ BC cell lines and is a worthwhile candidate for further study.

A short description of series [5]: Protein binding. Format: in vitro ADME.
Series [6] concerns human mammary epithelial cells (HMEC). Briefly: Antiproliferative assay of TX-542 in HMEC. Format: cell-based. The method, then: as §3
Series [7] relates to ERα. Type of series: cell-based. The following applies: MT-ERα, 200 nM.
Series [8] deals with MT-ERα expressing BC cells. Briefly: Apoptosis by annexin staining. Format: cell-based. The following applies: within 72 h after treatment, 200 nM. The method, then: FIG. 55: Effect of 200 nM TX-542 on apoptosis of MT-ERα expressing BC cells.
as §4

In series [9] the test system is MT-ERα. The series is described as follows: ERE luciferase reporter gene assay, TX-542. Type of series: cell-based. The following applies: minimal promoter with three copies of ERE.
Series [10] has as its system WT-ERα ZR-75 or MT-ERα MCF-7 xenografts. Briefly: TX-542 in ERα BC xenografts. Type of series: in vivo, nude mice. As to the method:
FIGS. 59A-B: MCF-7 MT-ERa D538G and Y537S xenograft tumors were injected into the mammary fat pad of nude mice. Once the tumors were established (100 mm^3), treatment with either vehicle or TX-542 (10 mg/kg/ip) was commenced and their effect on tumor growth and mice body weights were graphed (n=9 per group).
as §1

Series [11] relates to MCF-7 MT-ERα Y537S cells. Type of series: cell-based. The note with it: 200 nM.
Series [12] concerns estrogen receptor-positive breast cancer. The series is described as follows: Growth inhibition of ER-positive breast cancer. Type of series: cell-based.
Series [13] has as its system MT-ERα expressing BC metastasis. Briefly: Metastatic models (intracardiac, intratibial injection). Format: in vivo, mice. The method, then:
FIG. 63: Following intracardiac injection of luciferase-tagged ZR-75 MT-ERα Y537S tumors, mice are imaged five at a time under 2% isoflurane gas anesthesia. Each mouse is injected with D-Luciferin and imaged 10-15 minutes after the injection. BLI signal is quantified in regions of interest (ROIs) drawn around tumors, specific areas (for example cranial, thoracic or abdominal), whole body or tissues ex vivo and the signal is expressed as photons per second, representing the flux radiating omni-directionally from the user-defined region. Images are analyzed using Living Image 4.3.1 (PerkinElmer, Waltham, MA) software. Once the tumors were established (40,000 luminescene counts at 30 seconds exposure), mice were treated either with vehicle or TX-542. […] Relative luminescence counts are mapped (middle panel). Mice were sacrificed once symptomatic and the survival curves for vehicle treated (black) or TX-542 treated (red) are graphed (right panel) (n=6 in each group).
Once tumors were established, daily treatment of mice with either vehicle or TX-542 (10 mg/kg/ip) were performed. Results are shown and graphed (n=6).
(§5) Since MT-ERα is primarily expressed in metastases, the inventors used metastatic models to evaluate effect of TX-542 on the development and progression of metastasis.

Series [14] has as its system BC cells expressing MT-ERα. Briefly: Boyden chamber invasion assay. Format: cell-based.
From the text: FIG. 62: Effect of TX-542 on invasiveness of BC cells expressing Erα mutants in a Boyden chamber assay.
as §5

For series [15], the system named is MT-ERα. The series is described as follows: ChIP of MT-ERα DNA binding, TX-542. Format: cell-based.
The subject of series [16] is BC cells expressing MT-ERα (MCF-7, ZR-75, T47-D). Briefly: Cell titer glo antiproliferative assay in MT-ERα BC cells. Format: cell-based.
From the text: as §2, §3

Series [17] has as its target ERα (Homo sapiens, UniProt P03372). Type of series: cell-based. The note with it: WT-ERα.
The test system of series [18] is MT-ERα. The series is described as follows: MT-ERα protein levels. Format: cell-based.
The test system of series [19] is ZR-75 MT-ERα cells. Briefly: Colony formation, ZR-75 MT-ERα. Format: cell-based. As to the method:
as §4

Sequence of ERα (Homo sapiens, UniProt P03372) (P03372 whole entry): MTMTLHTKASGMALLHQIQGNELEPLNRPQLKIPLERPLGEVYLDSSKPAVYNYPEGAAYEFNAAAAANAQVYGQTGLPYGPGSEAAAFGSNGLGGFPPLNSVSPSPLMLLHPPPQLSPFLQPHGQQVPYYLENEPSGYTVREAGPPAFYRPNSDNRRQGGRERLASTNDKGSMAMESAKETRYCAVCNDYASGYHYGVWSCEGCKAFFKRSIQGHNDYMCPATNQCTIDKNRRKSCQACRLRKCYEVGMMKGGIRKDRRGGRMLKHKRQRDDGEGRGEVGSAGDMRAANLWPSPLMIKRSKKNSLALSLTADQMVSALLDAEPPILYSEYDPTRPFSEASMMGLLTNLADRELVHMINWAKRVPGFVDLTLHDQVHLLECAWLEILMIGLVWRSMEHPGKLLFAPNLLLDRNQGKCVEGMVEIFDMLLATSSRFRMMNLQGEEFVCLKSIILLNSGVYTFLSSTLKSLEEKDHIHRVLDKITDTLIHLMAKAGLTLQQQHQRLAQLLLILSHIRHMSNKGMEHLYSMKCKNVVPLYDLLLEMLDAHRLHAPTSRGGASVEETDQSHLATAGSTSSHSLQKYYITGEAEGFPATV

As to `NCCC(=O)Nc1ccc(C(=O)Nc2ccc(C(=O)NCCc3ccc4ccccc4c3)cc2OCC2CCCCC2)cc1OCCO` [TX-542], the “level in tumor tissue” value in [1] (24 h after the last dose, daily i.p. 10 mg/kg) is recorded as above 0.1 mg/g. Moreover, the “time to steady state levels in tumor” value in [1] (MCF-Y537S xenografts, daily i.p. 10 mg/kg) is reported as 5 days. Moreover, the half-life in series [1] (mouse, plasma, intraperitoneal) is 8 h. Also, the concentration at 24 h in series [1] (mouse, tumor, intraperitoneal, 10 mg/kg, 24 h after the last dose, read-out: corresponding tumor concentration) was above 200 nM. Besides, the “activity against ER-null cells” value in series [2] is on record as “no activity”. The “spheroid size or architecture” value in series [3] was “disrupted spheroid architecture”. Further, the clonogenic survival entry in series [4] is recorded as “significantly reduced the survival”. The bound to proteins in series [5] was found to be 75%. Besides, in [6], the “activity against non-tumorigenic breast epithelial cells” value is listed as “no activity”. Further, the “onset of effect on MT-ERα levels” value in [7] is reported as “not noticeable until 24 h”. Further, the apoptotic cell death entry in [8] was “induced apoptotic cell death”. For the same compound, in series [9], the ERE-driven transcription entry is listed as “decrease transcription”. In series [10] (10 mg/kg/ip), the “growth of established xenografts” value is recorded as “potent activity” and the mouse body weights result is on record as “no effect on mouse body weights”. Also, the “renal and liver parameters, histopathology, clinical chemistry” value in [10] (treated animals) is “lack of change in renal and liver parameters”. In series [11], the “soft agar colony formation” value is recorded as “potently reduced soft agar colony formation”. In addition, in [12], the “growth inhibition of ER-positive breast cancer” value is “strong growth inhibition” and the “specificity for ER-positive cells” value is reported as “high specificity”. Moreover, in series [13] (10 mg/kg/ip), the “growth of lung and bone metastasis” value is listed as “decrease the growth of lung metastasis”. For the same compound, the “animals that formed mets” value in series [13] (within 4 weeks, treatment started immediately after intracardiac injection) is recorded as 1/6. The “invasion of BC cells expressing MT-ERα” value in series [14] is on record as “potently affects the invasion”. For the same compound, the “MT-ERα DNA binding” value in series [15] was “blocks both basal and estradiol-induced MT-ERα DNA binding”. Further, in [16] (MCF-7, ZR-75 or T47-D cells expressing MT-ERα, read-out: IC50, antiproliferative), the concentration for half-maximal inhibition (IC50) was 20 to 50 nM. In addition, the IC50 in series [16] (MT-ERα alone (ZR-75 and T47-D) or with WT-ERa (MCF-7), read-out: IC50 in multiple MT-ERα models) was below 50 nM.
As to `C[C@]12CC[C@@H]3c4ccc(O)cc4C[C@@H](CCCCCCCCC[S+]([O-])CCCC(F)(F)C(F)(F)F)[C@H]3[C@@H]1CC[C@@H]2O` (some centres unmarked) [fulvestrant], the “spheroid size or architecture” value in [3] is on record as “neither ERX-11, palbociclib, GDC-0810 nor AZD-9496, tamoxifen nor fulvestrant (at 200 nM) significantly disrupted spheroid size or architecture”. Besides, the “time to WT-ERα degradation” value in series [17] is on record as at most 4 h. In addition, the “soft agar colony formation” value in series [11] is recorded as “significantly affected colony formation”. In [18], the “ability to decrease MT-ERα protein levels” value is “neither fulvestrant nor GDC-0810 were able to decrease MT-ERα protein levels”. Also, the “colony formation in ZR-75 MT-ERα cells” value in series [19] is on record as “activity was not seen”.
